Data reported in PubChem BioAssay AID330 (DTP/NCI, 2004).
Several values for one entry are separate records, joined by “and”; a condition that tells them apart may be missing. Equal entries are not always repeated. Inconclusive results and toxic doses are left out. How the source made its calls: active means survival T/C of 150% or more; inactive means T/C below 125% in these data.

Tested on: P388 leukemia ip, CD2F1 mice, survival T/C
Assay: NCI In Vivo Anticancer Drug Screen. Data for tumor model P388 Leukemia (intraperitoneal) in CD2F1 (CDF1) mice
Conditions: endpoint: median survival time, higher = longer survival
Method in brief: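 Mice carrying the transplanted tumor received test compound or vehicle. Survival was recorded in each group, and the value is the treated-group measurement divided by that of the vehicle-treated control group.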

[1] = dose: 50.0 mg/kg/injection, schedule: Q01DX005 (ip), vehicle: saline with Tween-80
[2] = dose: 100.0 mg/kg/injection, schedule: Q01DX005 (ip), vehicle: saline with Tween-80
[3] = dose: 200.0 mg/kg/injection, schedule: Q01DX005 (ip), vehicle: saline with Tween-80
[4] = dose: 12.5 mg/kg/injection, schedule: Q01DX009 (ip), vehicle: saline
[5] = dose: 50.0 mg/kg/injection, schedule: Q01DX009 (ip), vehicle: saline
[6] = dose: 50.0 mg/kg/injection, schedule: Q01DX005 (ip), vehicle: Klucel (hydroxypropylcellulose) (HPC)
[7] = dose: 100.0 mg/kg/injection, schedule: Q01DX005 (ip), vehicle: Klucel (hydroxypropylcellulose) (HPC)
[8] = dose: 200.0 mg/kg/injection, schedule: Q01DX005 (ip), vehicle: Klucel (hydroxypropylcellulose) (HPC)
[9] = dose: 60.0 mg/kg/injection, schedule: Q01DX005 (ip), vehicle: saline with Tween-80
[10] = dose: 120.0 mg/kg/injection, schedule: Q01DX005 (ip), vehicle: saline with Tween-80
[11] = dose: 50.0 mg/kg/injection, schedule: Q01DX009 (ip), vehicle: saline with Tween-80
[12] = dose: 100.0 mg/kg/injection, schedule: Q01DX009 (ip), vehicle: saline with Tween-80
[13] = dose: 60.0 mg/kg/injection, schedule: Q01DX005 (ip), vehicle: Klucel + Tween-80
[14] = dose: 120.0 mg/kg/injection, schedule: Q01DX005 (ip), vehicle: Klucel + Tween-80
[15] = dose: 100.0 mg/kg/injection, schedule: Q04DX003 (ip), vehicle: saline with Tween-80
[16] = dose: 200.0 mg/kg/injection, schedule: Q04DX003 (ip), vehicle: saline with Tween-80
[17] = dose: 100.0 mg/kg/injection, schedule: Q01DX009 (ip), vehicle: saline
[18] = dose: 6.25 mg/kg/injection, schedule: Q01DX009 (ip), vehicle: saline with Tween-80
[19] = dose: 12.5 mg/kg/injection, schedule: Q01DX009 (ip), vehicle: saline with Tween-80
[20] = dose: 25.0 mg/kg/injection, schedule: Q01DX009 (ip), vehicle: saline with Tween-80
[21] = dose: 50.0 mg/kg/injection, schedule: Q04DX003 (ip), vehicle: saline with Tween-80
[22] = dose: 25.0 mg/kg/injection, schedule: Q04DX003 (ip), vehicle: saline with Tween-80
[23] = dose: 200.0 mg/kg/injection, schedule: Q01DX001 (ip), vehicle: Klucel (hydroxypropylcellulose) (HPC)

Measured: T/C

C[N+]1(C)CCC(Cl)CC1
inactive: dose: 3.75 mg/kg/injection, schedule: Q01DX005 (ip), vehicle: saline 104 % of control | dose: 7.5 mg/kg/injection, schedule: Q01DX005 (ip), vehicle: saline 103 % of control | dose: 15.0 mg/kg/injection, schedule: Q01DX005 (ip), vehicle: saline 99 % of control | dose: 30.0 mg/kg/injection, schedule: Q01DX005 (ip), vehicle: saline 100 % of control and 102 % of control

CC12CCC(=O)C=C1CCC1C2CCC2(C)C(OC(=O)C34C=CC(=O)C3C3C=CC4CC3)CCC12 (configuration not stated)
inactive: dose: 25.0 mg/kg/injection, schedule: Q01DX005 (ip), vehicle: distilled water + Tween-80 95 % of control | dose: 50.0 mg/kg/injection, schedule: Q01DX005 (ip), vehicle: distilled water + Tween-80 92 % of control

Cc1c(-c2ccncc2)nc2ccccc2c1C(=O)O
inactive: [1] 100 % of control | [2] 100 % of control | [3] 97 % of control

Cc1cc(C)c[n+]([O-])c1
inactive: [4] 111 % of control | dose: 25.0 mg/kg/injection, schedule: Q01DX009 (ip), vehicle: saline 111 % of control | [5] 111 % of control

CCOC(=O)C1=C(N)OC(c2ccccc2)=C(C#N)C1c1ccccc1Cl (configuration not stated)
inactive: [6] 101 % of control | [7] 113 % of control | [8] 97 % of control

CC(=O)ON(C(=O)c1ccccc1)c1ccccc1
inactive: [9] 104 % of control | [10] 102 % of control | dose: 240.0 mg/kg/injection, schedule: Q01DX005 (ip), vehicle: saline with Tween-80 99 % of control

O=C(CCl)Nc1cc2ccccc2oc1=O
inactive: [9] 105 % of control | [10] 109 % of control

OCCN1CCN(CC/C=C2/c3ccccc3Sc3ccc(Cl)cc32)CC1
inactive: dose: 0.39 mg/kg/injection, schedule: Q01DX005 (ip), vehicle: saline 100 % of control | dose: 0.78 mg/kg/injection, schedule: Q01DX005 (ip), vehicle: saline 100 % of control | dose: 1.56 mg/kg/injection, schedule: Q01DX005 (ip), vehicle: saline 105 % of control | dose: 6.25 mg/kg/injection, schedule: Q01DX005 (ip), vehicle: saline 123 % of control | dose: 12.5 mg/kg/injection, schedule: Q04DX003 (ip), vehicle: saline 118 % of control | dose: 25.0 mg/kg/injection, schedule: Q04DX003 (ip), vehicle: saline 122 % of control | dose: 33.0 mg/kg/injection, schedule: Q04DX003 (ip), vehicle: saline 90 % of control | dose: 50.0 mg/kg/injection, schedule: Q04DX003 (ip), vehicle: saline 90 % of control | dose: 75.0 mg/kg/injection, schedule: Q04DX003 (ip), vehicle: saline 100 % of control

COc1cc2cccc(O)c2cc1OC
inactive: dose: 12.5 mg/kg/injection, schedule: Q01DX009 (ip), vehicle: other 90 % of control | dose: 25.0 mg/kg/injection, schedule: Q01DX009 (ip), vehicle: other 106 % of control | dose: 50.0 mg/kg/injection, schedule: Q01DX009 (ip), vehicle: other 92 % of control | dose: 200.0 mg/kg/injection, schedule: Q01DX009 (ip), vehicle: other 90 % of control

Cc1ncc(Br)c(C(=O)N=C(N)N)n1
inactive: [6] 95 % of control | [7] 100 % of control | [8] 94 % of control

CN(C)CC[CH2][Sn]([CH2]CCN(C)C)([CH2]CCN(C)C)[CH2]CCN(C)C
inactive: [11] 105 % of control | [12] 97 % of control

O=C(O)[C@@H]1c2ccccc2-c2ccccc2[C@H]1C(=O)O
inactive: [1] 98 % of control | [2] 95 % of control | [3] 107 % of control

CCCCN(CCCC)CC(O)c1cc(-c2ccc(Cl)cc2)nc2c(Cl)cc(Cl)cc12 (configuration not stated)
inactive: [13] 100 % of control | [14] 88 % of control

CCN(CC)S(=O)(=O)c1ccc(OC)c(N)c1
inactive: [11] 90 % of control | [12] 95 % of control | [15] 90 % of control | dose: 200.0 mg/kg/injection, schedule: Q01DX009 (ip), vehicle: saline with Tween-80 90 % of control | [16] 90 % of control

S=C(Nc1cc(Cl)cc(Cl)c1)SCc1ccccc1
inactive: [5] 100 % of control | [17] 99 % of control | dose: 200.0 mg/kg/injection, schedule: Q01DX009 (ip), vehicle: saline 107 % of control

CCOc1c(N=Nc2ccc(OC)cc2)c(C)nn1C(N)=S
inactive: dose: 15.0 mg/kg/injection, schedule: Q01DX005 (ip), vehicle: Klucel + Tween-80 101 % of control | dose: 30.0 mg/kg/injection, schedule: Q01DX005 (ip), vehicle: Klucel + Tween-80 100 % of control | [13] 98 % of control and 123 % of control | [14] 110 % of control and 91 % of control | dose: 240.0 mg/kg/injection, schedule: Q01DX005 (ip), vehicle: Klucel + Tween-80 100 % of control

O=C(Nc1cccnc1)c1ccccc1
inactive: [18] 100 % of control | [19] 100 % of control | [20] 100 % of control

CSCCCCCCSC
inactive: [21] 100 % of control | [15] 100 % of control | [16] 109 % of control

S=C(Oc1ccccc1)SSC(=S)Oc1ccccc1
inactive: [22] 114 % of control | [21] 104 % of control | dose: 100.0 mg/kg/injection, schedule: Q04DX003 (ip), vehicle: DMSO 90 % of control | [15] 96 % of control | [16] 107 % of control

c1ccc(CC2NCCc3c2[nH]c2ccccc32)cc1 (configuration not stated)
inactive: [1] 100 % of control | [2] 99 % of control | [3] 94 % of control

c1ccc(C2(c3ccccc3)CN3CCSC3=N2)cc1
inactive: dose: 12.5 mg/kg/injection, schedule: Q04DX003 (ip), vehicle: saline with Tween-80 104 % of control | [22] 103 % of control | [21] 99 % of control | [15] 108 % of control | [16] 103 % of control

[I][Hg][CH2]C1OCCOC1[CH2][Hg][I] (configuration not stated)
inactive: [15] 118 % of control | [16] 118 % of control | dose: 400.0 mg/kg/injection, schedule: Q04DX003 (ip), vehicle: saline with Tween-80 90 % of control

CC(C)(C)N1N=C2CCCC2[Si]1(C)C (configuration not stated)
inactive: dose: 25.0 mg/kg/injection, schedule: Q01DX005 (ip), vehicle: Klucel (hydroxypropylcellulose) (HPC) 105 % of control | [6] 102 % of control | [7] 102 % of control

OC1(c2ccc(CCc3ccc(C4(O)C(c5ccccc5)=C(c5ccccc5)C(c5ccccc5)=C4c4ccccc4)cc3)cc2)C(c2ccccc2)=C(c2ccccc2)C(c2ccccc2)=C1c1ccccc1
inactive: [18] 100 % of control | [19] 97 % of control | [20] 93 % of control | [23] 89 % of control

Oc1ccccc1C=NCCC[N-]CCCN=Cc1ccccc1O.[Co]
inactive: [4] 113 % of control | [17] 119 % of control

C=C1C(=O)C23CC1CCC2C12COC(OC(=O)CCCCCCCCCCCCC)C1C(C)(C)C(O)CC2OC3=O (configuration not stated)
inactive: dose: 7.5 mg/kg/injection, schedule: Q01DX009 (ip), vehicle: saline with Tween-80 109 % of control | dose: 15.0 mg/kg/injection, schedule: Q01DX009 (ip), vehicle: saline with Tween-80 109 % of control | dose: 30.0 mg/kg/injection, schedule: Q01DX009 (ip), vehicle: saline with Tween-80 100 % of control | dose: 60.0 mg/kg/injection, schedule: Q01DX009 (ip), vehicle: saline with Tween-80 111 % of control

COc1cc(C(=O)NNC(C)C)cc(OC)c1OC
inactive: [6] 104 % of control | [7] 100 % of control | [8] 107 % of control

CN(C)c1ccc(C2(C(=O)O)CCCC(C)(C)C2)cc1 (configuration not stated)
inactive: dose: 100.0 mg/kg/injection, schedule: Q01DX001 (ip), vehicle: Klucel (hydroxypropylcellulose) (HPC) 95 % of control | [23] 95 % of control | dose: 400.0 mg/kg/injection, schedule: Q01DX001 (ip), vehicle: Klucel (hydroxypropylcellulose) (HPC) 92 % of control
